From patent US9464082B2, “Aryl and arylalkyl substituted pyrazolyl and pyrimidinyl tricyclic enones as antioxidant inflammation modulators” (AbbVie Inc., priority 2014, dated 2016)

What follows are compounds tested on IFNγ-Induced NO Production (assay: Nitric Oxide Suppression Assay (Suppression of IFNγ-Induced NO Production)). Conditions: RAW264.7; RAW 264.7 mouse macrophage cells; 2 hour pre-treatment with compound (3 μM to 0.3 nM, 10 point curve); 20 ng/mL interferon gamma, ~18 hour; Griess detection; n=2-3 in duplicates.
Format: cell-based
Protocol: RAW 264.7, a mouse macrophage cell line, was obtained from American Type Culture Collection (Manassas Va.) and maintained in the log phase of growth in Dulbecco's Modified Eagle's Medium (DMEM), 10% heat inactivated fetal calf serum and 100 units/mL antibiotic-antimycotic (AA). Cells were cultured and maintained in a humidified incubator at 37° C. under 5% CO2 and 95% air. Cells were sub-cultured every 3 days by scraping and were not used beyond passage 20. All cell culture supplies were obtained from Life Technologies (Grand Island, N.Y.).
RAW 264.7 cells were plated 1 day in advance of experiment at a concentration of 80,000 cells/well onto CellBIND® 96 well plates (Corning, N.Y.) in a total volume of 100 μL. The next day, pre-treat cells with compounds (from 3 μM to 0.3 nM serially diluted in a 10 point curve) from a 10× stock by adding 10 μL per well in complete DMEM media containing 10% fetal calf serum. The plates were centrifuged for 3 minutes at 400×g at room temperature followed by 2 hour incubation at 37° C. The cells were then incubated overnight at 37° C. with 10 μL of the insult, interferon gamma (R&D Systems, Minneapolis, Minn.), from a 10× stock for a final concentration of 20 ng/mL. The plates were centrifuged for 3 minutes at 400×g at room temperature followed by ˜18 hour incubation at 37° C. The following day, transfer 50 μL cell culture supernatant from each well into a clear bottom 96 well plate and follow the instructions from Promega's Griess Detection Kit #G2930 (Madison, Wis.) which involves the addition of 50 μL of the provided sulfanilamide solution for a 5-10 minute incubation at room temperature. Next add 50 μL of the provided N-1-napthylethylenediamine dihydrochloride (NED) solution for a 5-10 minute incubation at room temperature and protected from light. If any air bubbles were introduced into the well, the plates need to be centrifuged for 5 minutes at 400×g at room temperature to avoid interference with absorbance readings. The plates were read for absorbance within 30 minutes with a filter between 520 nm and 550 nm.
For the ability of compounds to suppress the increase in nitric oxide release, the percent maximal intensity of nitric oxide detected in each well was normalized to that induced by the peak value for 20 ng/mL of interferon gamma alone and plotted against the compound concentration to calculate IC50 values and to control for plate-to-plate variability. Concentration-response data were analyzed using GraphPad Prism (San Diego, Calif.); the IC50 values were derived from a single curve fit to the mean data of n=2-3, in duplicates.
All compounds were dissolved in dimethyl sulfoxide at 10 mM stock solutions and tested at a concentration that the dimethyl sulfoxide levels never exceeded 1%.

SMILES	IC50
C[C@@H]1C(=O)C(C#N)=C[C@]2(c3ccccc3)c3nc(-c4ccncc4)ncc3CC[C@@H]12 [Example 29, (6aS,7S,10aR)-7-methyl-8-oxo-10a-phenyl-2-(pyridin-4-yl)-5,6,6a,7,8,10a-hexahydrobenzo[h]quinazoline-9-carbonitrile]	6.36 nM
CCN(CC)c1ncc2c(n1)[C@@]1(c3ccccc3)C=C(C#N)C(=O)[C@@H](C)[C@@H]1CC2 [Example 30, (6aS,7S,10aR)-2-(diethylamino)-7-methyl-8-oxo-10a-phenyl-5,6,6a,7,8,10a-hexahydrobenzo[h]quinazoline-9-carbonitrile]	56.8 nM
CC(C)Oc1nc(-c2ccccc2F)nc2c1CC[C@H]1[C@H](C)C(=O)C(C#N)=C[C@]21c1ccccc1 [Example 31, (6aS,7S,10aR)-2-(2-fluorophenyl)-4-isopropoxy-7-methyl-8-oxo-10a-phenyl-5,6,6a,7,8,10a-hexahydrobenzo[h]quinazoline-9-carbonitrile]	272 nM
COC(=O)n1cc2c(n1)[C@@]1(c3ccccc3)C=C(C#N)C(=O)[C@@H](C)[C@@H]1CC2 [Example 32, methyl (5aS,6S,9aR)-8-cyano-6-methyl-7-oxo-9a-phenyl-4,5,5a,6,7,9a-hexahydro-2H-benzo[g]indazole-2-carboxylate]	25.9 nM
Cc1nc(-c2cn[nH]c2)c2c(n1)[C@@]1(c3ccccc3)C=C(C#N)C(=O)[C@@H](C)[C@@H]1CC2 [Example 34, (6aS,7S,10aR)-2,7-dimethyl-8-oxo-10a-phenyl-4-(1H-pyrazol-4-yl)-5,6,6a,7,8,10a-hexahydrobenzo[h]quinazoline-9-carbonitrile]	2.86 nM
Cc1nc(-c2cnn(C)c2)c2c(n1)[C@@]1(c3ccccc3)C=C(C#N)C(=O)[C@@H](C)[C@@H]1CC2 [Example 35, (6aS,7S,10aR)-2,7-dimethyl-4-(1-methyl-1H-pyrazol-4-yl)-8-oxo-10a-phenyl-5,6,6a,7,8,10a-hexahydrobenzo[h]quinazoline-9-carbonitrile]	4.86 nM
C[C@@H]1C(=O)C(C#N)=C[C@]2(c3ccccc3)c3nn(S(C)(=O)=O)cc3CC[C@@H]12 [Example 36, (5aS,6S,9aR)-6-methyl-2-(methylsulfonyl)-7-oxo-9a-phenyl-4,5,5a,6,7,9a-hexahydro-2H-benzo[g]indazole-8-carbonitrile]	69.3 nM
C[C@@H]1C(=O)C(C#N)=C[C@]2(c3ccccc3)c3nn(C(=O)Oc4ccccc4)cc3CC[C@@H]12 [Example 37, phenyl (5aS,6S,9aR)-8-cyano-6-methyl-7-oxo-9a-phenyl-4,5,5a,6,7,9a-hexahydro-2H-benzo[g]indazole-2-carboxylate]	60.5 nM
C[C@@H]1C(=O)C(C#N)=C[C@]2(c3ccccc3)c3nn(C(=O)c4ccccc4)cc3CC[C@@H]12 [Example 38, (5aS,6S,9aR)-2-benzoyl-6-methyl-7-oxo-9a-phenyl-4,5,5a,6,7,9a-hexahydro-2H-benzo[g]indazole-8-carbonitrile]	75.2 nM
C[C@@H]1C(=O)C(C#N)=C[C@]2(c3ccccc3)c3nn(C(=O)CNC(=O)OC(C)(C)C)cc3CC[C@@H]12 [Example 39, tert-butyl {2-[(5aS,6S,9aR)-8-cyano-6-methyl-7-oxo-9a-phenyl-4,5,5a,6,7,9a-hexahydro-2H-benzo[g]indazol-2-yl]-2-oxoethyl}carbamate]	53.6 nM
C[C@@H]1C(=O)C(C#N)=C[C@]2(c3ccccc3)c3nn(C(=O)c4cscn4)cc3CC[C@@H]12 [Example 40, (5aS,6S,9aR)-6-methyl-7-oxo-9a-phenyl-2-(1,3-thiazol-4-ylcarbonyl)-4,5,5a,6,7,9a-hexahydro-2H-benzo[g]indazole-8-carbonitrile]	45.4 nM
C[C@@H]1C(=O)C(C#N)=C[C@]2(c3ccccc3)c3nn(S(=O)(=O)c4ccccc4)cc3CC[C@@H]12 [Example 41, (5aS,6S,9aR)-6-methyl-7-oxo-9a-phenyl-2-(phenylsulfonyl)-4,5,5a,6,7,9a-hexahydro-2H-benzo[g]indazole-8-carbonitrile]	1180 nM
C[C@@H]1C(=O)C(C#N)=C[C@]2(c3ccccc3)c3nn(C(=O)CO)cc3CC[C@@H]12 [Example 42, (5aS,6S,9aR)-2-glycoloyl-6-methyl-7-oxo-9a-phenyl-4,5,5a,6,7,9a-hexahydro-2H-benzo[g]indazole-8-carbonitrile]	34.2 nM
COc1cccc(-c2nc(C)nc3c2CC[C@H]2[C@H](C)C(=O)C(C#N)=C[C@]32c2ccccc2)c1 [Example 43, (6aS,7S,10aR)-4-(3-methoxyphenyl)-2,7-dimethyl-8-oxo-10a-phenyl-5,6,6a,7,8,10a-hexahydrobenzo[h]quinazoline-9-carbonitrile]	16.5 nM
Cc1nc(-c2ccc(=O)n(C)c2)c2c(n1)[C@@]1(c3ccccc3)C=C(C#N)C(=O)[C@@H](C)[C@@H]1CC2 [Example 44, (6aS,7S,10aR)-2,7-dimethyl-4-(1-methyl-6-oxo-1,6-dihydropyridin-3-yl)-8-oxo-10a-phenyl-5,6,6a,7,8,10a-hexahydrobenzo[h]quinazoline-9-carbonitrile]	51.1 nM
Cc1nc(-c2ccc3ncccc3c2)c2c(n1)[C@@]1(c3ccccc3)C=C(C#N)C(=O)[C@@H](C)[C@@H]1CC2 [Example 45, (6aS,7S,10aR)-2,7-dimethyl-8-oxo-10a-phenyl-4-(quinolin-6-yl)-5,6,6a,7,8,10a-hexahydrobenzo[h]quinazoline-9-carbonitrile]	106 nM
CC(=O)OCCc1cccc(-c2nc(C)nc3c2CC[C@H]2[C@H](C)C(=O)C(C#N)=C[C@]32c2ccccc2)c1 [Example 46, 2-{3-[(6aS,7S,10aR)-9-cyano-2,7-dimethyl-8-oxo-10a-phenyl-5,6,6a,7,8,10a-hexahydrobenzo[h]quinazolin-4-yl]phenyl}ethyl acetate]	7.52 nM
Cc1nc(-c2cccc(CCO)c2)c2c(n1)[C@@]1(c3ccccc3)C=C(C#N)C(=O)[C@@H](C)[C@@H]1CC2 [Example 47, (6aS,7S,10aR)-4-[3-(2-hydroxyethyl)phenyl]-2,7-dimethyl-8-oxo-10a-phenyl-5,6,6a,7,8,10a-hexahydrobenzo[h]quinazoline-9-carbonitrile]	18.8 nM
C[C@@H]1C(=O)C(C#N)=C[C@]2(c3ccccc3)c3nn(C(=O)Nc4cccnc4)cc3CC[C@@H]12 [Example 48, (5aS,6S,9aR)-8-cyano-6-methyl-7-oxo-9a-phenyl-N-(pyridin-3-yl)-4,5,5a,6,7,9a-hexahydro-2H-benzo[g]indazole-2-carboxamide]	40.1 nM
C[C@@H]1C(=O)C(C#N)=C[C@]2(c3ccccc3)c3nc(-c4cncnc4)ncc3CC[C@@H]12 [Example 49, (6aS,7S,10aR)-7-methyl-8-oxo-10a-phenyl-2-(pyrimidin-5-yl)-5,6,6a,7,8,10a-hexahydrobenzo[h]quinazoline-9-carbonitrile]	7.15 nM
C[C@@H]1C(=O)C(C#N)=C[C@]2(c3ccc(F)cc3)c3ncncc3CC[C@@H]12 [Example 50, (6aS,7S,10aR)-10a-(4-fluorophenyl)-7-methyl-8-oxo-5,6,6a,7,8,10a-hexahydrobenzo[h]quinazoline-9-carbonitrile]	10.3 nM
C[C@@H]1C(=O)C(C#N)=C[C@]2(c3ccc(F)cc3)c3nc(-c4cccnc4)ncc3CC[C@@H]12 [Example 51, (6aS,7S,10aR)-10a-(4-fluorophenyl)-7-methyl-8-oxo-2-(pyridin-3-yl)-5,6,6a,7,8,10a-hexahydrobenzo[h]quinazoline-9-carbonitrile]	6.14 nM
